Laboratory results as given in PubChem BioAssay (NCI).
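Compound exposure: 48 hours, 5 concentrations, 96-well plates. At the GI50, growth is halved. Definition used: TGI = concentration required for complete inhibition of growth.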

Columns and labels:
Experiment in all cases: NCI-60 cell line screen, 48 h
[1] = tested on: 786-0 renal
[2] = tested on: A498 renal
[3] = tested on: A549 NSCLC
[4] = tested on: ACHN renal
[5] = tested on: BT-549 breast
[6] = tested on: CAKI-1 renal
[7] = tested on: CCRF-CEM leukemia
[8] = tested on: COLO 205 colon
[9] = tested on: DU-145 prostate
[10] = tested on: EKVX NSCLC
[11] = tested on: HCC-2998 colon
[12] = tested on: HCT-116 colon
[13] = tested on: HCT-15 colon
[14] = tested on: HL-60(TB) leukemia
[15] = tested on: HOP-62 NSCLC
[16] = tested on: HOP-92 NSCLC
[17] = tested on: HS 578T breast
[18] = tested on: HT29 colon
[19] = tested on: IGROV1 ovarian
[20] = tested on: K-562 leukemia
[21] = tested on: KM12 colon
[22] = tested on: LOX IMVI melanoma
[23] = tested on: M14 melanoma
[24] = tested on: MALME-3M melanoma
[25] = tested on: MCF7 breast
[26] = tested on: MDA-MB-231 breast
[27] = tested on: MOLT-4 leukemia
[28] = tested on: NCI-H226 lung
[29] = tested on: NCI-H23 lung

`COc1ccc(/C=N/NC(=O)c2cccc3cc[nH]c23)cc1O` was tested, and the GI50 [1] was 5.13 µM, the TGI [1] was > 100 µM and the GI50 [2] was 4.05 µM. The TGI [2] was 86.1 µM, the GI50 [3] was 5.36 µM and the TGI [3] was > 100 µM. For the same compound, the GI50 [4] was 4.19 µM, the TGI [4] was > 100 µM and the GI50 [5] was 12.2 µM. For the same compound, the TGI [5] was > 78.8 µM, the GI50 [6] was 0.192 µM and the TGI [6] was > 49 µM. For the same compound, the GI50 [7] was 1.93 µM, the TGI [7] was > 28.5 µM and the GI50 [8] was 13.9 µM. For the same compound, the TGI [8] was > 80.7 µM, the GI50 [9] was 3 µM and the TGI [9] was > 46.5 µM. The GI50 [10] was 11 µM, the TGI [10] was > 100 µM and the GI50 [11] was 6.96 µM. The TGI [11] was 97.5 µM, the GI50 [12] was 1.72 µM and the TGI [12] was > 100 µM. The GI50 [13] was 0.615 µM, the TGI [13] was > 46.1 µM and the GI50 [14] was 0.55 µM. For the same compound, the TGI [14] was > 22.7 µM, the GI50 [15] was 11.2 µM and the TGI [15] was > 100 µM. The GI50 [16] was 18.5 µM, the TGI [16] was > 74.6 µM and the GI50 [17] was 1.47 µM. The TGI [17] was > 30.3 µM, the GI50 [18] was 4.32 µM and the TGI [18] was > 100 µM. The GI50 [19] was 7.91 µM, the TGI [19] was > 100 µM and the GI50 [20] was 2.17 µM. The TGI [20] was > 100 µM, the GI50 [21] was 0.883 µM and the TGI [21] was > 100 µM. The GI50 [22] was 1.3 µM, the TGI [22] was > 100 µM and the GI50 [23] was 1.13 µM. The TGI [23] was > 100 µM, the GI50 [24] was 1.96 µM and the TGI [24] was > 100 µM. For the same compound, the GI50 [25] was 0.63 µM, the TGI [25] was > 100 µM and the GI50 [26] was 0.685 µM. The TGI [26] was > 35 µM, the GI50 [27] was 2.84 µM and the TGI [27] was > 66.2 µM. For the same compound, the GI50 [28] was 6.28 µM, the TGI [28] was > 33.7 µM and the GI50 [29] was 6.57 µM.
